The nature of series [1]: Genotoxicity in CHO cells assessed as mitotic inhibition at 0.62 ppm after 60 mins in dark followed by 5 W/m'2 UV irradiation for 30 mins. To be noted: chinese hamster, CHO cells; read-out: Activity. Type of series: toxicity, cell-based, Cricetulus griseus.
Series [2] concerns CHO. The experiment in a line: Phototoxicity against CHO cells assessed as mitotic inhibition at 12 ppm after UV irradiation. The conditions noted are these: chinese hamster. The class given is cell-based, Cricetulus griseus.
Series [3] has as its system CHO. The experiment in a line: Genotoxicity in CHO cells assessed as chromosomal aberrations at 50 ppm after 60 mins in dark followed by 5 W/m'2 UV irradiation for 30 mins. Type of series: toxicity, cell-based, Cricetulus griseus. The conditions noted are these: chinese hamster.
The subject of series [4] is CHO. Kind of series: Genotoxicity in CHO cells assessed as chromosomal aberrations at 25 ppm after 60 mins in dark followed by 5 W/m'2 UV irradiation for 30 mins. Type of series: toxicity, cell-based, Cricetulus griseus. The conditions noted are these: chinese hamster.
Series [5] has as its system CHO. The experiment in a line: Genotoxicity in CHO cells assessed as chromosomal aberrations at 12.5 ppm after 60 mins in dark followed by 5 W/m'2 UV irradiation for 30 mins. To be noted: chinese hamster, 0.5 h. The class given is toxicity, cell-based, Cricetulus griseus.
Series [6] has as its system CHO. The experiment in a line: Genotoxicity in CHO cells assessed as chromosomal aberrations at 100 ppm after 60 mins in dark followed by 5 W/m'2 UV irradiation for 30 mins. The class given is toxicity, cell-based, Cricetulus griseus. To be noted: chinese hamster, 0.5 h.
In series [7] the test system is CHO. Kind of series: Genotoxicity in CHO cells assessed as chromosomal aberrations at 100 ppm after 90 mins in dark. The class given is toxicity, cell-based, Cricetulus griseus. To be noted: chinese hamster, 1.5 h.
Series [8] deals with CHO. The experiment in a line: Genotoxicity in CHO cells assessed as mitotic inhibition at 6.3 ppm after 60 mins in dark followed by 5 W/m'2 UV irradiation for 30 mins. To be noted: chinese hamster, 0.5 h. The class given is toxicity, cell-based, Cricetulus griseus.
Series [9] deals with CHO. The experiment in a line: Phototoxicity against CHO cells at 25 ppm. The conditions noted are these: chinese hamster. The class given is cell-based, Cricetulus griseus.
Series [10] relates to CHO. The experiment in a line: Genotoxicity in CHO cells assessed as chromosomal aberrations at 50 ppm after 90 mins in dark. Type of series: toxicity, cell-based, Cricetulus griseus. The conditions noted are these: chinese hamster, 1.5 h.
For series [11], the system named is CHO. The experiment in a line: Genotoxicity in CHO cells assessed as chromosomal aberrations at 6.2 ppm after 60 mins in dark followed by 5 W/m'2 UV irradiation for 30 mins. To be noted: chinese hamster, 0.5 h. Type of series: toxicity, cell-based, Cricetulus griseus.
The test system of series [12] is CHO. Kind of series: Genotoxicity in CHO cells assessed as chromosomal aberrations at 3.1 ppm after 60 mins in dark followed by 5 W/m'2 UV irradiation for 30 mins. Type of series: toxicity, cell-based, Cricetulus griseus. To be noted: chinese hamster, 0.5 h.
Series [13] concerns CHO. Kind of series: Genotoxicity in CHO cells assessed as chromosomal aberrations at 0.8 ppm after 60 mins in dark followed by 5 W/m'2 UV irradiation for 30 mins. The class given is toxicity, cell-based, Cricetulus griseus. The conditions noted are these: chinese hamster, 0.5 h.
Series [14] relates to CHO. The experiment in a line: Genotoxicity in CHO cells assessed as chromosomal aberrations at 0.4 ppm after 60 mins in dark followed by 5 W/m'2 UV irradiation for 30 mins. The class given is toxicity, cell-based, Cricetulus griseus. To be noted: chinese hamster, 0.5 h.
The subject of series [15] is Escherichia coli. The experiment in a line: Phototoxicity against Escherichia coli at 100 ug/disk after irradiation with W/m'2 UV light. The class given is functional. To be noted: light or radiation study, read-out: IZ.
Series [16] concerns Escherichia coli. The experiment in a line: Phototoxicity against Escherichia coli at 100 ug/disk in dark. The class given is functional. To be noted: light or radiation study, read-out: IZ.
The subject of series [17] is Pseudomonas aeruginosa. The experiment in a line: Phototoxicity against Pseudomonas aeruginosa at 100 ug/disk after irradiation with W/m'2 UV light. Type of series: functional. The conditions noted are these: light or radiation study, read-out: IZ.
Series [18] deals with Pseudomonas aeruginosa. The experiment in a line: Phototoxicity against Pseudomonas aeruginosa at 100 ug/disk in dark. The class given is functional. The conditions noted are these: light or radiation study, read-out: IZ.
Series [19] concerns Pseudomonas fluorescens. Kind of series: Phototoxicity against Pseudomonas fluorescens at 100 ug/disk after irradiation with W/m'2 UV light. The class given is functional. To be noted: light or radiation study, read-out: IZ.
Series [20] has as its system Pseudomonas fluorescens. Kind of series: Phototoxicity against Pseudomonas fluorescens at 100 ug/disk in dark. The conditions noted are these: light or radiation study, read-out: IZ. The class given is functional.
For series [21], the system named is Bacillus subtilis. The experiment in a line: Phototoxicity against Bacillus subtilis at 100 ug/disk after irradiation with W/m'2 UV light. The class given is functional. To be noted: light or radiation study, read-out: IZ.
The test system of series [22] is Bacillus subtilis. Kind of series: Phototoxicity against Bacillus subtilis at 100 ug/disk in dark. The class given is functional. The conditions noted are these: light or radiation study, read-out: IZ.
The subject of series [23] is Enterococcus faecalis. The experiment in a line: Phototoxicity against Streptococcus faecalis at 100 ug/disk after irradiation with W/m'2 UV light. Type of series: functional. To be noted: light or radiation study, read-out: IZ.
In series [24] the test system is Enterococcus faecalis. Kind of series: Phototoxicity against Streptococcus faecalis at 100 ug/disk in dark. Type of series: functional. The conditions noted are these: light or radiation study, read-out: IZ.
The subject of series [25] is Staphylococcus aureus. Kind of series: Phototoxicity against Staphylococcus aureus at 100 ug/disk after irradiation with W/m'2 UV light. The class given is functional. The conditions noted are these: light or radiation study, read-out: IZ.
The test system of series [26] is Staphylococcus aureus. Kind of series: Phototoxicity against Staphylococcus aureus at 100 ug/disk in dark. The conditions noted are these: light or radiation study, read-out: IZ. The class given is functional.
Series [27] concerns Candida albicans. The experiment in a line: Phototoxicity against Candida albicans at 100 ug/disk after irradiation with W/m'2 UV light. The class given is functional. The conditions noted are these: light or radiation study, read-out: IZ.
In series [28] the test system is Candida albicans. Kind of series: Phototoxicity against Candida albicans at 100 ug/disk in dark. The class given is functional. The conditions noted are these: light or radiation study, read-out: IZ.
In series [29] the test system is Saccharomyces cerevisiae. The experiment in a line: Phototoxicity against Saccharomyces cerevisiae at 100 ug/disk after irradiation with W/m'2 UV light. The class given is functional. To be noted: light or radiation study, read-out: IZ.
Series [30] has as its system Saccharomyces cerevisiae. The experiment in a line: Phototoxicity against Saccharomyces cerevisiae at 100 ug/disk in dark. The conditions noted are these: light or radiation study, read-out: IZ. Type of series: functional.
Series [31] relates to CHO. Kind of series: Genotoxicity against CHO cells. The conditions noted are these: chinese hamster. The class given is toxicity, cell-based, Cricetulus griseus.
Series [32] concerns CHO. Kind of series: Genotoxicity against CHO cells after UV irradiation. The class given is toxicity, cell-based, Cricetulus griseus. To be noted: chinese hamster.

Where a name gives a salt, the structure may show the parent alone.

`c1ccc2c(c1)[nH]c1cnccc12` [NORHARMANE]: in series [1], the inhibition at 0.5 h, 0.62 ppm turned out to be 0%.
Consider `C=C[C@H]1C[N@@]2CC[C@H]1C[C@H]2[C@H](O)c1ccnc2ccc(OC)cc12` [QUININE], for which the Activity entry in the series with CHO [2] is “Active”; with CHO [3] it was “Toxic”; in the series with CHO [4], “Toxic”; with CHO [5], “Toxic”; in the series with CHO [6] it was “Toxic”; in the series with CHO [7], 0%. For the same compound, the outcome in the series on CHO [8] and with CHO [9] was Active.
Take `COc1ccc2c(OC)c3ccoc3nc2c1OC` [SKIMMIANINE]: the Activity entry with CHO [3] is recorded as “Toxic”; in the series on CHO [10], 0%; in the series with CHO [4], 50%; in the series on CHO [5] it was 61.9%; with CHO [11], 59.9%; in the series with CHO [12] it was 45%. Further, the Activity in the series with CHO [13] is 10.9%; in the series on CHO [14], 3%.
As to `O=C1C[C@@H]2OCC=C3CN4CC[C@]56c7ccccc7N1[C@H]5[C@H]2[C@H]3C[C@H]46` [STRYCHNINE SULFATE], the zone of inhibition at 100 µg/disc in the series with Escherichia coli [15], in the series with Escherichia coli [16], with Pseudomonas aeruginosa [17], with Pseudomonas aeruginosa [18], in the series on Pseudomonas fluorescens [19] and with Pseudomonas fluorescens [20] was 0 mm in each case. In addition, the zone of inhibition at 100 µg/disc in the series with Bacillus subtilis [21], with Bacillus subtilis [22], with Enterococcus faecalis [23], with Enterococcus faecalis [24], in the series with Staphylococcus aureus [25] and with Staphylococcus aureus [26] was 0 mm in each case. For the same compound, the zone of inhibition at 100 µg/disc with Candida albicans [27], with Candida albicans [28], in the series with Saccharomyces cerevisiae [29] and in the series with Saccharomyces cerevisiae [30] was 0 mm throughout.
As for `O=C1C[C@@H]2OCC=C3CN4CC[C@]56c7ccccc7N1[C@H]5[C@H]2[C@H]3C[C@H]46` [STRYCHNINE], the Activity entry in the series on CHO [31] and in the series on CHO [32] was “Not Active” each time.
With `CC[C@]1(O)C[C@@H]2CN(CCc3c([nH]c4ccccc34)[C@@](C(=O)OC)(c3cc4c(cc3OC)N(C)[C@H]3[C@@](O)(C(=O)OC)[C@H](OC(C)=O)[C@]5(CC)C=CCN6CC[C@]43[C@@H]65)C2)C1` [VINBLASTINE], the Activity entry with CHO [31] and in the series with CHO [32] was “Not Active” throughout.

For the origin of these results see ChEMBL document CHEMBL1148993, “UV-mediated genotoxicity of furanoquinoline and of certain tryptophan-derived alkaloids” (J Nat Prod, 1983).
